Values quoted from earlier work in patent publication US20220151922A1, “Medication for Alleviating Parkinson's Symptoms and Method of Administering” (priority 2020, published 2022).

What was measured:
[1] = tested on: bacteria, bacterial spores, and viruses; settings: versus chlorine bleach
[2] = tested on: Pseudomonas aeruginosa biofilms

SMILES: OCl [HOCl, Hypochlorous acid]
- effectiveness of killing bacteria, bacterial spores, and viruses relative to chlorine bleach [1]: 100 times
- removing Pseudomonas aeruginosa biofilms [2]: effectiveness
